Values quoted from earlier work in PubChem BioAssay AID1259409 (Chemical Carcinogenesis Research Information System (CCRIS), 2018).

Test system: rodent chemically induced tumor inhibition, incidence and multiplicity
Assay: CCRIS tumor inhibitor studies

Row | Structure (SMILES) | tumour outcome (control, treated, inhibition, significance) (Carcinogen: 7,12-DIMETHYLBENZ[A]ANTHRACENE, 57-97-6, Dose [Inhibitor]: 0, 400 NMOL 1/WK FOR 45 WK APPLIED 5 MIN PRIOR TO EACH CARCINOGEN DOSE (STUDY DURATION: 45 WK), Route [Inhibitor]: DERMAL, Species: MOUSE, Strain/Sex: SENCAR, Target Tissue: Type of Lesion: SKIN: PAPILLOMA, Dose [Carcinogen]: 50 NMOL 1/WK FOR 45 WK, Promoter: NONE USED) | tumour outcome (control, treated, inhibition, significance) (Carcinogen: 7,12-DIMETHYLBENZ[A]ANTHRACENE, 57-97-6, Dose [Inhibitor]: 0, 400 NMOL ONCE APPLIED 5 MIN PRIOR TO CARCINOGEN DOSE (STUDY DURATION: 25 WK), Route [Inhibitor]: DERMAL, Species: MOUSE, Strain/Sex: SENCAR, Target Tissue: Type of Lesion: SKIN: PAPILLOMA, Dose [Carcinogen]: 10 NMOL ONCE, Promoter: 12-O-TETRADECANOYLPHORBOL-13-ACETATE, 16561-29-8) | tumour outcome (control, treated, inhibition, significance) (Carcinogen: 7,12-DIMETHYLBENZ[A]ANTHRACENE, 57-97-6, Dose [Inhibitor]: 0, 800 NMOL ONCE APPLIED 5 MIN PRIOR TO CARCINOGEN DOSE (STUDY DURATION: 25 WK), Route [Inhibitor]: DERMAL, Species: MOUSE, Strain/Sex: SENCAR, Target Tissue: Type of Lesion: SKIN: PAPILLOMA, Dose [Carcinogen]: 200 NMOL ONCE, Promoter: 12-O-TETRADECANOYLPHORBOL-13-ACETATE, 16561-29-8) | tumour outcome (control, treated, inhibition, significance) (Carcinogen: 7-12-DIMETHYLBENZ[A]ANTHRACENE, 57-97-6, Dose [Inhibitor]: 0, 400 NMOL 1/WK FOR 45 WK APPLIED 5 MIN PRIOR TO EACH CARCINOGEN DOSE (STUDY DURATION: 45 WK), Route [Inhibitor]: DERMAL, Species: MOUSE, Strain/Sex: SENCAR, Target Tissue: Type of Lesion: SKIN: CARCINOMA, Dose [Carcinogen]: 50 NMOL 1/WK FOR 45 WK) | tumour outcome (control, treated, inhibition, significance) (Carcinogen: 7-12-DIMETHYLBENZ[A]ANTHRACENE, 57-97-6, Dose [Inhibitor]: 0, 800 NMOL 1/WK FOR 45 WK APPLIED 5 MIN PRIOR TO EACH CARCINOGEN DOSE (STUDY DURATION: 45 WK), Route [Inhibitor]: DERMAL, Species: MOUSE, Strain/Sex: SENCAR, Target Tissue: Type of Lesion: SKIN: CARCINOMA, Dose [Carcinogen]: 50 NMOL 1/WK FOR 45 WK) | tumour outcome (control, treated, inhibition, significance) (Carcinogen: 7-12-DIMETHYLBENZ[A]ANTHRACENE, 57-97-6, Dose [Inhibitor]: 0, 800 NMOL 1/WK FOR 45 WK APPLIED 5 MIN PRIOR TO EACH CARCINOGEN DOSE (STUDY DURATION: 45 WK), Route [Inhibitor]: DERMAL, Species: MOUSE, Strain/Sex: SENCAR, Target Tissue: Type of Lesion: SKIN: PAPILLOMA, Dose [Carcinogen]: 50 NMOL 1/WK FOR 45 WK) | tumour outcome (control, treated, inhibition, significance) (Carcinogen: BENZO[A]PYRENE, 50-32-8, Dose [Inhibitor]: 0, 800 NMOL ONCE APPLIED 5 MIN PRIOR TO CARCINOGEN DOSE (STUDY DURATION: 25 WK), Route [Inhibitor]: DERMAL, Species: MOUSE, Strain/Sex: SENCAR, Target Tissue: Type of Lesion: SKIN: PAPILLOMA, Dose [Carcinogen]: 200 NMOL ONCE, Promoter: 12-O-TETRADECANOYLPHORBOL-13-ACETATE, 16561-29-8) | tumour outcome (control, treated, inhibition, significance) (Carcinogen: BENZO[A]PYRENE, 50-32-8, Dose [Inhibitor]: 0, 1600 NMOL ONCE APPLIED 5 MIN PRIOR TO CARCINOGEN DOSE (STUDY DURATION: 25 WK), Route [Inhibitor]: DERMAL, Species: MOUSE, Strain/Sex: SENCAR, Target Tissue: Type of Lesion: SKIN: PAPILLOMA, Dose [Carcinogen]: 200 NMOL ONCE, Promoter: 12-O-TETRADECANOYLPHORBOL-13-ACETATE, 16561-29-8) | tumour outcome (control, treated, inhibition, significance) (Carcinogen: 7,12-DIMETHYLBENZ[A]ANTHRACENE, 57-97-6, Dose [Inhibitor]: 0.06 MMOL/G DIET DAILY FOR 17 WK STARTING 1 WK PRIOR TO CARCINOGEN TREATMENT AND CONTINUING THROUGH THE END OF THE STUDY, Route [Inhibitor]: ORAL, Species: RAT, Strain/Sex: SPRAGUE-DAWLEY/FEMALE, Target Tissue: Type of Lesion: MAMMARY GLAND: TUMOR, Dose [Carcinogen]: 12 MG IN 1 ML OLIVE OIL ONCE, Promoter: NONE USED)
1 | CC(C)=CCOc1c2occc2cc2ccc(=O)oc12 | 97%, 60%, 38%, p<0.05 | 93%, 93%, 0%, not significant | 93%, 75%, 19%, not significant | 90%, 53%, 41%, not calculated | 90%, 37%, 59%, not calculated | 97%, 53%, 45%, p<0.05 | 92%, 92%, 0%, not significant | 92%, 85%, 8%, not significant | –
2 | CSCC[C@H](NC(C)=O)C(=O)O | – | – | – | – | – | – | – | – | 59%, 69%, -17%, not calculated
